Measured values from patent publication US20060069132A1, “Azolecarboxamide herbicides” (priority 2004, published 2006).
Like-named read-outs stand apart in the source and are kept apart here.

Columns and labels:
velvetleaf = experiment: Test B pre-/postemergence herbicide test; assay type: in vivo, Abutilon theophrasti
Outline: (§1)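 Response was scored visually 13 to 15 days after treatment against untreated greenhouse controls, 0 meaning no effect and 100 complete control. Formulations (solvent mixture plus surfactant) went onto soil after planting, onto foliage of 1- to 4-leaf plants, and onto 2-leaf plants in a flooded paddy set including rice and barnyardgrass.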

[1] = system: small flower umbrella sedge; experiment: Test B flooded paddy test; assay type: in vivo, Cyperus difformis; settings: Cyperus difformis, 336 h, 1000 g ai/ha, scale 0 to 100 (0 no effect, 100 complete control), read-out: Sedge, Umbrella plant response rating
Outline: (§2)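 Formulated test chemicals went onto postemergence plants measuring 2 to 18 cm, at one to four leaves. For the paddy assay, species had reached two leaves. Scoring took place 13–15 days later by eye, relative to untreated plants, using 0 for no effect up to 100 for full control.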

large crabgrass = experiment: Test B pre-/postemergence herbicide test; assay type: in vivo, Digitaria sanguinalis; settings: for pest or weed control at 500 g/ha: 500 g ai/ha
Outline: as §1

wild oat = experiment: Test B postemergence herbicide test; assay type: in vivo, Avena fatua; settings: Avena fatua, post-emergence, 336 h, read-out: Oat, Wild plant response rating
Outline: (§3)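 After treating 2-leaf paddy plants or 2–18 cm postemergence plants (1 to 4 leaves) with formulated chemical, researchers kept them in a greenhouse for 13–15 days. Effects were judged visually versus controls: 0 indicates none, 100 total control.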

corn = experiment: Test B pre-/postemergence herbicide test; assay type: in vivo, Zea mays
Outline: as §1

blackgrass = experiment: Test B postemergence herbicide test; assay type: in vivo, Alopecurus myosuroides; settings: Alopecurus myosuroides, post-emergence, 336 h, read-out: Blackgrass plant response rating
Outline: as §2

wheat = experiment: Test B postemergence herbicide test; assay type: in vivo, Triticum aestivum; settings: Triticum aestivum, post-emergence, 336 h, read-out: Wheat plant response rating
Outline: as §3

morningglory = experiment: Test B pre-/postemergence herbicide test; assay type: in vivo, Ipomoea coccinea; settings: for pest or weed control at 500 g/ha: 500 g ai/ha
Outline: (§4)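 Plants compared with untreated controls 13–15 days post-treatment and given a visual 0–100 injury score. Applications: preemergence to seeds; postemergence at 1- to 4-leaf (2–18 cm); paddy species flooded, 2-leaf stage. Vehicle non-phytotoxic, surfactant included.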

giant foxtail = experiment: Test B pre-/postemergence herbicide test; assay type: in vivo, Setaria faberi; settings: for pest or weed control at 500 g/ha: 500 g ai/ha
Outline: as §1

lambsquarters = experiment: Test B pre-/postemergence herbicide test; assay type: in vivo, Chenopodium album; settings: for pest or weed control at 500 g/ha: 500 g ai/ha
Outline: as §1

pigweed = experiment: Test B pre-/postemergence herbicide test; assay type: in vivo, Amaranthus retroflexus; settings: for pest or weed control at 500 g/ha: 500 g ai/ha
Outline: as §1

barnyardgrass = experiment: Test B pre-/postemergence herbicide test; assay type: in vivo, Echinochloa crus-galli; settings: for pest or weed control at 500 g/ha: 500 g ai/ha
Outline: as §4

cocklebur = experiment: Test B pre-/postemergence herbicide test; assay type: in vivo, Xanthium strumarium; settings: for pest or weed control at 500 g/ha: 500 g ai/ha
Outline: as §4

Surinam grass = experiment: Test B pre-/postemergence herbicide test; assay type: in vivo, Urochloa decumbens; settings: for pest or weed control at 500 g/ha: 500 g ai/ha
Outline: as §1

[2] = 125 g ai/ha, 0 is no effect, 100 is complete control, preemergence
[3] = 125 g ai/ha, visual rating, scale 0 (no effect) to 100 (complete control)
[4] = postemergence, 500 g ai/ha, scale 0 to 100, 0 is no effect, 100 is complete control

Question: Which results are given for `CCOC(=O)c1cccc(NC(=O)c2nn(C(C)(C)C)nc2CC)c1` [Compound 360, ethyl 3-[[[2-(1,1-dimethylethyl)-5-ethyl-2H-1,2,3-triazol-4-yl]carbonyl]amino]benzoate]?
Answer: Plant response rating (0 to 100 scale), Velvetleaf (velvetleaf; [2]): 20; pest or weed control at 125 g/ha (velvetleaf; Abutilon theophrasti, post-emergence, 336 h, 125 g ai/ha, visual rating, scale 0 (no effect) to 100 (complete control), read-out: Velvetleaf plant response rating): 40%; pest or weed control at 500 g/ha (velvetleaf; Abutilon theophrasti, post-emergence, 336 h, postemergence, 500 g ai/ha, scale 0 to 100, 0 is no effect, 100 is complete control, read-out: Velvetleaf plant response rating): 50%; pest or weed control at 1000 g/ha [1]: 90%; Plant response rating (0 to 100 scale), Crabgrass, Large (large crabgrass; [2]): 40; pest or weed control at 125 g/ha (large crabgrass; Digitaria sanguinalis, post-emergence, 125 g ai/ha, visual rating, scale 0 (no effect) to 100 (complete control), read-out: Crabgrass, Large plant response rating): 10%; pest or weed control at 500 g/ha (large crabgrass; Digitaria sanguinalis, post-emergence, postemergence, scale 0 to 100, 0 is no effect, 100 is complete control, read-out: Crabgrass, Large plant response rating): 20%; pest or weed control at 500 g/ha (large crabgrass; Digitaria sanguinalis, pre-emergence, visual rating, 0 = no effect, 100 = complete control, read-out: Plant response rating, Crabgrass, Large): 80%; pest or weed control at 125 g/ha (wild oat; [3]): 40%; pest or weed control at 500 g/ha (wild oat; [4]): 60%; Plant response rating (0 to 100 scale), Corn (corn; [2]): 10; plant injury at 125 g/ha (corn; Zea mays, post-emergence, 125 g ai/ha, visual rating, scale 0 (no effect) to 100 (complete control), read-out: Corn plant response rating): 10%; plant injury at 500 g/ha (corn; Zea mays, post-emergence, postemergence, 500 g ai/ha, scale 0 to 100, 0 is no effect, 100 is complete control, read-out: Corn plant response rating): 20%; Corn plant response rating (crop injury, 0 = no effect, 100 = complete kill) at 500 g/ha (corn; Zea mays, pre-emergence, 500 g ai/ha, visual rating, 0 = no effect, 100 = complete control): 40%; pest or weed control at 125 g/ha (blackgrass; [3]): 30%; pest or weed control at 500 g/ha (blackgrass; [4]): 50%; plant injury at 125 g/ha (wheat; [3]): 30%; plant injury at 500 g/ha (wheat; [4]): 40%; Plant response rating (0 to 100 scale), Morningglory (morningglory; [2]): 0; pest or weed control at 125 g/ha (morningglory; Ipomoea, post-emergence, 336 h, 125 g ai/ha, visual rating, scale 0 (no effect) to 100 (complete control), read-out: Morningglory plant response rating): 0%; pest or weed control at 500 g/ha (morningglory; Ipomoea, post-emergence, 336 h, postemergence, scale 0 to 100, 0 is no effect, 100 is complete control, read-out: Morningglory plant response rating): 10%; pest or weed control at 500 g/ha (morningglory; Ipomoea, pre-emergence, 336 h, visual rating, 0 = no effect, 100 = complete control, read-out: Plant response rating, Morningglory): 10%; Plant response rating (0 to 100 scale), Foxtail, Giant (giant foxtail; [2]): 50; pest or weed control at 125 g/ha (giant foxtail; Setaria faberi, post-emergence, 336 h, 125 g ai/ha, visual rating, scale 0 (no effect) to 100 (complete control), read-out: Foxtail, Giant plant response rating): 30%; pest or weed control at 500 g/ha (giant foxtail; Setaria faberi, post-emergence, 336 h, postemergence, scale 0 to 100, 0 is no effect, 100 is complete control, read-out: Foxtail, Giant plant response rating): 50%; pest or weed control at 500 g/ha (giant foxtail; Setaria faberi, pre-emergence, 336 h, visual rating, 0 = no effect, 100 = complete control, read-out: Plant response rating, Foxtail, Giant): 90%; Plant response rating (0 to 100 scale), Lambsquarters (lambsquarters; [2]): 0; pest or weed control at 125 g/ha (lambsquarters; Chenopodium album, post-emergence, 336 h, 125 g ai/ha, visual rating, scale 0 (no effect) to 100 (complete control), read-out: Lambsquarters plant response rating): 0%; pest or weed control at 500 g/ha (lambsquarters; Chenopodium album, post-emergence, 336 h, postemergence, scale 0 to 100, 0 is no effect, 100 is complete control, read-out: Lambsquarters plant response rating): 20%; pest or weed control at 500 g/ha (lambsquarters; Chenopodium album, pre-emergence, 336 h, visual rating, 0 = no effect, 100 = complete control, read-out: Plant response rating, Lambsquarters): 40%; Plant response rating (0 to 100 scale), Pigweed (pigweed; [2]): 20; pest or weed control at 125 g/ha (pigweed; Amaranthus retroflexus, post-emergence, 336 h, 125 g ai/ha, visual rating, scale 0 (no effect) to 100 (complete control), read-out: Pigweed plant response rating): 30%; pest or weed control at 500 g/ha (pigweed; Amaranthus retroflexus, post-emergence, 336 h, postemergence, scale 0 to 100, 0 is no effect, 100 is complete control, read-out: Pigweed plant response rating): 40%; pest or weed control at 500 g/ha (pigweed; Amaranthus retroflexus, pre-emergence, 336 h, visual rating, 0 = no effect, 100 = complete control, read-out: Plant response rating, Pigweed): 50%; Plant response rating (0 to 100 scale), Barnyardgrass (barnyardgrass; [2]): 10; pest or weed control at 125 g/ha (barnyardgrass; Echinochloa crus-galli, post-emergence, 125 g ai/ha, visual rating, scale 0 (no effect) to 100 (complete control), read-out: Barnyardgrass plant response rating): 0%; pest or weed control at 500 g/ha (barnyardgrass; Echinochloa crus-galli, post-emergence, postemergence, scale 0 to 100, 0 is no effect, 100 is complete control, read-out: Barnyardgrass plant response rating): 30%; pest or weed control at 500 g/ha (barnyardgrass; Echinochloa crus-galli, pre-emergence, visual rating, 0 = no effect, 100 = complete control, read-out: Plant response rating, Barnyardgrass): 40%; Plant response rating (0 to 100 scale), Cocklebur (cocklebur; [2]): 0; pest or weed control at 125 g/ha (cocklebur; Xanthium strumarium, post-emergence, 125 g ai/ha, visual rating, scale 0 (no effect) to 100 (complete control), read-out: Cocklebur plant response rating): 10%; pest or weed control at 500 g/ha (cocklebur; Xanthium strumarium, post-emergence, postemergence, scale 0 to 100, 0 is no effect, 100 is complete control, read-out: Cocklebur plant response rating): 20%; pest or weed control at 500 g/ha (cocklebur; Xanthium strumarium, pre-emergence, visual rating, 0 = no effect, 100 = complete control, read-out: Plant response rating, Cocklebur): 0%; Plant response rating (0 to 100 scale), Surinam Grass (Surinam grass; [2]): 20; pest or weed control at 125 g/ha (Surinam grass; Urochloa decumbens, post-emergence, 125 g ai/ha, visual rating, scale 0 (no effect) to 100 (complete control), read-out: Surinam Grass plant response rating): 10%; pest or weed control at 500 g/ha (Surinam grass; Urochloa decumbens, post-emergence, postemergence, scale 0 to 100, 0 is no effect, 100 is complete control, read-out: Surinam Grass plant response rating): 30%; pest or weed control at 500 g/ha (Surinam grass; Urochloa decumbens, pre-emergence, visual rating, 0 = no effect, 100 = complete control, read-out: Plant response rating, Surinam Grass): 50%
